Laboratory results taken from patent publication US20220169654A1, “New Organic Compounds” (Servier Pharmaceuticals LLC, priority 2020, published 2022).

Legend:
MAT2A homodimer = target: T1, MAT2A homodimer (Homo sapiens, UniProt P31153); assay: MAT2A inhibition (biochemical, liberated phosphate, PiColorLock Gold); settings: recombinant MAT2A homodimer; IC50 bin with Max Inh.; read-out: Enzyme Inhibition Bin
T1 construct: inferred from Ni sepharose purification with imidazole elution; made in house; host or cells: Sf9 insect cells, baculovirus (Bac to Bac, pFASTBAC1)
Procedure: Mat2A protein was expressed by recombinant baculovirus in SF9 infected cells using the Bac to Bac system cloned into the pFASTBAC1 vector (Invitrogen, Carlsbad, Calif.). Recombinant MAT2A was isolated from the cell lysate of 150 g of infected cells using HP Ni sepharose column chromatography. Recombinant MAT2A homodimer was eluted with 250 and 500 mM imidazole, and fractions containing MAT2A were identified by sodium dodecyl sulfate polyacrylamide gel electrophoresis and pooled.
For determination of the inhibitory potency of compounds against the MAT2A homodimer, protein was diluted to 4 μg/mL in assay buffer (50 mM Tris, pH 8.0, 50 mM KCl, 15 mM MgCl2, 0.3 mM EDTA, 0.005% [w/v] bovine serum albumin [BSA]). Test compound was prepared in 100% dimethyl sulfoxide (DMSO) at 50× the desired final concentration. A 1 μL volume of compound dilution was added to 40 μL of enzyme dilution and the mixture was allowed to equilibrate for 60 minutes at 25° C. The enzymatic assay was initiated by the addition of 10 μL of substrate mix (500 μM ATP, pH 7.0, 400 μM L-methionine in 1× assay buffer), and the mixture was incubated for a further 60 minutes at 25° C. The reaction was halted and the liberated phosphate released by the enzyme in stoichiometric amounts by the production of S-adenosyl methionine (SAM) was measured using the PiColorLock Gold kit (Innova Biosciences, UK). Absolute product amounts were determined by comparison to a standard curve of potassium phosphate buffer, pH 8.0. The compounds were also tested in a secondary assay utilizing 1 μg/mL MAT2A and incubated for 5 hours at 25° C. before halting and processing as above.
Specific compounds disclosed herein were tested in the foregoing assay and they were determined to inhibit MAT2A with an IC50. See, Table 1 below.

[1] = test system: SAM in HCT116 human colon carcinoma cell line with MTAP gene deleted (MTAP −/−); assay: Cellular assay of target engagement (SAM), LC-MS/MS, 72 hrs; assay type: cell-based; settings: HCT-116, IC50 bin with Max Inh., read-out: Cell 72 h SAM Inhibition (MTAP −/−)
Procedure: Measurement of MAT2A activity in cells was made by direct quantitation of the abundance of the product of its enzymatic activity, SAM. Cancer cells were treated with candidate MAT2A inhibitors for a suitable incubation period, and the cells were then lysed using a reagent which quenched any further enzyme activity. Soluble metabolites including SAM were collected and SAM itself was directly measured from the lysate using quantitative LC-MS/MS.
A typical assay was performed using an HCT116 human colon carcinoma cell line which was genetically engineered to delete the MTAP gene (commercially available from Horizon Discovery). This cell line was utilized because it was determined that loss of the MTAP gene predicts sensitivity to MAT2A inhibitors. Cells were plated in 96-well dishes at appropriate cell density. Following 24 hours, cells were then treated with the candidate MAT2A inhibitor. Prior to addition to cells, the compound was first serially diluted in 100% DMSO, typically as a 3-fold serial dilution starting at 500× top dose with 10 dose points including DMSO only control. Compound was then transferred to a working stock plate in cell culture media by adding 5 μL of compound in DMSO to 495 μL of cell culture media. This working stock was then added to cells via a further 5-fold dilution, by adding 25 μL of working stock to 100 μL of cells in culture media. Following compound addition, cells were incubated at 37° C./5% CO2 for 72 hrs.
To quantitate SAM levels following compound treatment, cells were gently washed once in ammonium carbonate buffer (75 mM at pH 7.4), placed on dry ice, and lysed with metabolite extraction buffer (80% cold methanol and 20% water (v/v) with acetic acid at 1M final concentration with 200 ng/mL deuterated d3-SAM as internal control). Following centrifugation at 4° C. at 3,200 rpm for 30 minutes, the supernatant was collected and stored at −80° C. until analysis by Liquid Chromatography with tandem Mass Spectrometry (LC-MS/MS). LC-MS/MS analysis was performed using an API6500 Mass Spectrometer (Sciex, Framingham, Mass., USA) operating in positive ion spray mode and equipped with a Waters UPLC Acquity (Waters, Milford, Mass., USA) BEH Amide column. Multiple Reaction Monitoring data was acquired for SAM and the d3-SAM standard, using a mass transition pair at m/z 399.2→250.1 and 402.2→250.1, respectively. In a typical LC-MS/MS analysis, the initial flow rate was 0.5 ml/min of 25% mobile phase A (acetonitrile and water at 5:95 (v/v) with 1% formic acid and 10 mM ammonium acetate) and 75% mobile phase B (acetonitrile and water at 95:5 (v/v) with 1% formic acid and 10 mM ammonium acetate), 0.2-0.5 minutes with 75%-35% mobile phase B, 25%-65% mobile phase A, at 0.5 min 65% mobile phase A and 35% mobile phase B, 1.0-1.1 minutes with 35%-75% mobile phase B, 65%-25% mobile phase A, at 1.1 min 25% mobile phase A and 75% mobile phase B with a total run time of 1.5 minutes.
Specific compounds disclosed herein were tested in the foregoing assay and they were determined to inhibit SAM with an IC50. See, Table 1 below.

HCT116 MTAP+/+ = assay: Inhibition of cellular proliferation, 4 days, Cell Titer Glo, HCT116 MTAP+/+; assay type: cell-based; settings: Homo sapiens, HCT-116, 96 h, IC50 bin with Max Inh., read-out: 4 Day Relative Growth Inhibition (MTAP +/+)
Procedure: (§1) Test compound impact on cancer cell growth was assessed by treating cancer cells with compound for 4 days and then measuring proliferation using an ATP-based cell proliferation readout (Cell Titer Glo, Promega Corporation).
(§2) In a typical assay an isogenic pair of HCT116 human colon carcinoma cell lines which vary only in MTAP deletion status (HCT116 MTAP+/+ and HCT116 MTAP−/−) were plated in 96-well dishes at appropriate cell density. Following 24 hours, cells were then treated with the candidate MAT2A inhibitor. Prior to addition to cells, the compound was first serially diluted in 100% DMSO, typically as a 3-fold serial dilution starting at 500× top dose with 10 dose points including DMSO only control. Compound was then transferred to a working stock plate in cell culture media by adding 5 μL of compound in DMSO to 495 μL of cell culture media. This working stock was then added to cells via a further 5-fold dilution, by adding 25 μL of working stock to 100 μL of cells in culture media. Following compound addition, cells were incubated at 37° C./5% CO2 for 4 days.
(§3) To measure inhibition of cellular proliferation, cells were allowed to equilibrate to room temperature for 30 minutes, and were then treated with 125 μL of Cell Titer Glo reagent. The plate was then covered with aluminum foil and shaken for 15 minutes to ensure complete mixing and full cell lysis. Luminescent signal was then measured using a plate-based luminometer Veritas version 1.9.2 using ATP standard curve to confirm assay reproducibility from run to run. This luminescence measure was converted to a proliferation index by subtracting from each data point the ATP luminescence signal measured from a bank (no cells) well and dividing by the ATP luminescence signal measured in 0.2% DMSO control well adjusted for signal in blank well. Compound activity was then represented as a percentage change in proliferation relative to a within-plate DMSO control against log 10 of compound concentration in molar (M) units.
(§4) Specific compounds disclosed herein were tested in the foregoing assay and they were determined to inhibit cellular proliferation with an IC50. See, Table 1 below.

HCT116 MTAP−/− = assay: Inhibition of cellular proliferation, 4 days, Cell Titer Glo, HCT116 MTAP−/−; assay type: cell-based; settings: Homo sapiens, HCT-116, 96 h, IC50 bin with Max Inh., read-out: 4 Day Relative Growth Inhibition (MTAP −/−)
Procedure: as §1, §2, §3, §4

T1 sequence (P31153 whole entry): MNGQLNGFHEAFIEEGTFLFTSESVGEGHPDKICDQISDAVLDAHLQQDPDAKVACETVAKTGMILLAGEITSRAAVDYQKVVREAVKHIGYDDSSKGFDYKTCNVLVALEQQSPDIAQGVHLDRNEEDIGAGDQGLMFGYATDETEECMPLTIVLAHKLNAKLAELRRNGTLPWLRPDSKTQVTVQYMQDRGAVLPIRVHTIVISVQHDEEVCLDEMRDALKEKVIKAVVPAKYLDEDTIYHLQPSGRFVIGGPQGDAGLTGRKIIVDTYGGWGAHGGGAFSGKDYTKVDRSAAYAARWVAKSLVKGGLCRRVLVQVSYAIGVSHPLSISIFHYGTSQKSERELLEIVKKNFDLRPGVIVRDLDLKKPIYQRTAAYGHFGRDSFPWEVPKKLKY

IC50 (MAT2A homodimer) | IC50 [1] | IC50 (HCT116 MTAP+/+) | IC50 (HCT116 MTAP−/−) | Structure (SMILES)
< 100 nM | < 100 nM | 100 to 1000 nM | < 100 nM | Cc1ccc(-c2c(=O)n(-c3ccc4nn(C)cc4c3)nc3ccn(CC4CC4)c23)cn1 [Example 103, 5-(cyclopropylmethyl)-2-(2-methyl-2H-indazol-5-yl)-4-(6-methylpyridin-3-yl)-2,5-dihydro-3H-pyrrolo[3,2-c]pyridazin-3-one]
< 100 nM | < 100 nM | 100 to 1000 nM | < 100 nM | Cn1cc2cc(-n3nc4cnn(CC5CC5)c4c(-c4ccc(Cl)cc4)c3=O)ccc2n1 [Example 221, 7-(4-chlorophenyl)-1-(cyclopropylmethyl)-5-(2-methyl-2H-indazol-5-yl)-1,5-dihydro-6H-pyrazolo[4,3-c]pyridazin-6-one]
< 100 nM | < 100 nM | 100 to 1000 nM | < 100 nM | Cn1cc2cc(-n3nc4c(C#N)c(Cl)n(CC5CC5)c4c(-c4ccc(C5CC5)nc4)c3=O)ccc2n1 [Example 251, 6-chloro-5-(cyclopropylmethyl)-4-(6-cyclopropylpyridin-3-yl)-2-(2-methyl-2H-indazol-5-yl)-3-oxo-3,5-dihydro-2H-pyrrolo[3,2-c]pyridazine-7-carbonitrile]
< 100 nM | 100 to 1000 nM | > 1000 nM | 100 to 1000 nM | Cn1cc2cc(-n3nc4ncn(CC5CC5)c4c(-c4ccc(OC(F)F)nc4)c3=O)ccc2n1 [Example 189, 5-(cyclopropylmethyl)-4-(6-(difluoromethoxy)pyridin-3-yl)-2-(2-methyl-2H-indazol-5-yl)-2,5-dihydro-3H-imidazo[4,5-c]pyridazin-3-one]
< 100 nM | < 100 nM | > 1000 nM | < 100 nM | COc1ccc(-c2c(=O)n(-c3ccc4nn(C)cc4c3)nc3ncn(CC4CC4)c23)cc1 [Example 193, 5-(cyclopropylmethyl)-4-(4-methoxyphenyl)-2-(2-methyl-2H-indazol-5-yl)-2,5-dihydro-3H-imidazo[4,5-c]pyridazin-3-one]
< 100 nM | < 100 nM | > 1000 nM | < 100 nM | Cn1cc2cc(-n3nc4ccn(CC5CC5)c4c(-c4ccc(OC(F)F)nc4)c3=O)ccc2n1 [Example 113, 5-(cyclopropylmethyl)-4-(6-(difluoromethoxy)pyridin-3-yl)-2-(2-methyl-2H-indazol-5-yl)-2,5-dihydro-3H-pyrrolo[3,2-c]pyridazin-3-one]
< 100 nM | 100 to 1000 nM | 100 to 1000 nM | 100 to 1000 nM | CCCn1cc(C#N)c2nn(-c3ccc4nn(C)cc4c3)c(=O)c(-c3ccc(C)nc3)c21 [Example 145, 2-(2-methyl-2H-indazol-5-yl)-4-(6-methylpyridin-3-yl)-3-oxo-5-propyl-3,5-dihydro-2H-pyrrolo[3,2-c]pyridazine-7-carbonitrile]
< 100 nM | < 100 nM | > 1000 nM | 100 to 1000 nM | Cn1cc2cc(-n3nc4c(C#N)cn(CC5CC5)c4c(-c4ccc5[nH]cc(C#N)c5c4)c3=O)ccc2n1 [Example 130, 4-(3-cyano-1H-indol-5-yl)-5-(cyclopropylmethyl)-2-(2-methyl-2H-indazol-5-yl)-3-oxo-3,5-dihydro-2H-pyrrolo[3,2-c]pyridazine-7-carbonitrile]
< 100 nM | 100 to 1000 nM | > 1000 nM | 100 to 1000 nM | Cn1cc2cc(-n3nc4c(C#N)cn(CCC(F)(F)F)c4c(-c4ccc(C5CC5)nc4)c3=O)ccc2n1 [Example 109, 4-(6-cyclopropylpyridin-3-yl)-2-(2-methyl-2H-indazol-5-yl)-3-oxo-5-(3,3,3-trifluoropropyl)-3,5-dihydro-2H-pyrrolo[3,2-c]pyridazine-7-carbonitrile]
< 100 nM | 100 to 1000 nM | 100 to 1000 nM | 100 to 1000 nM | Cn1cc2cc(-n3nc4ccn(CC5CC5)c4c(-c4ccc(C#N)cc4)c3=O)ccc2n1 [Example 154, 4-(5-(cyclopropylmethyl)-2-(2-methyl-2H-indazol-5-yl)-3-oxo-3,5-dihydro-2H-pyrrolo[3,2-c]pyridazin-4-yl)benzonitrile]
< 100 nM | < 100 nM | 100 to 1000 nM | < 100 nM | [2H]C([2H])([2H])Oc1ccc(-c2c(=O)n(-c3ccc4nn(C)cc4c3)nc3c(C)nn(CC4CC4)c23)cc1 [Example 216, 1-(cyclopropylmethyl)-7-(4-(methoxy-d3)phenyl)-3-methyl-5-(2-methyl-2H-indazol-5-yl)-1,5-dihydro-6H-pyrazolo[4,3-c]pyridazin-6-one]
< 100 nM | < 100 nM | 100 to 1000 nM | < 100 nM | C#Cc1cn(CC2CC2)c2c(-c3ccc(C4CC4)nc3)c(=O)n(-c3ccc4nn(C)cc4c3)nc12 [Example 244, 5-(cyclopropylmethyl)-4-(6-cyclopropylpyridin-3-yl)-7-ethynyl-2-(2-methyl-2H-indazol-5-yl)-2,5-dihydro-3H-pyrrolo[3,2-c]pyridazin-3-one]
